Target: Coagulation factor XI (Homo sapiens, UniProt P03951)
Experiment: Enzyme Activity Assay: Human Factor XIa (Haematologic Technologies Inc.) activity was measured at an enzyme concentration of 0.1 U/mL in 150 mM NaCl, 5 mM KCl, 1 mg/mL PEG6000, 50 mM HEPES-NaOH (pH7.4) with 300 μM S-2366 (pyroGlu-Pro-Arg-pNA, Chromogenix).

Chain of Coagulation factor XI (P03951 19-387 limits assumed): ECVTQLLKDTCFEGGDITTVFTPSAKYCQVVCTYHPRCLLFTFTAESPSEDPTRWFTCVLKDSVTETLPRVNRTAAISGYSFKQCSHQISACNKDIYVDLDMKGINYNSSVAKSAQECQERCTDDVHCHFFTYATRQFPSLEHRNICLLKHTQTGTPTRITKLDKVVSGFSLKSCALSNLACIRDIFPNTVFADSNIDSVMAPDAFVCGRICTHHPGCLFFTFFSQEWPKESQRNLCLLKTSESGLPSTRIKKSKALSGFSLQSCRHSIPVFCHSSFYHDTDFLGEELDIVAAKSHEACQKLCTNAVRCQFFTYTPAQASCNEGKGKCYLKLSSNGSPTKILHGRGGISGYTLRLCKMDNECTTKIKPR
Chain of Coagulation factor XI (P03951 388-625 limits assumed): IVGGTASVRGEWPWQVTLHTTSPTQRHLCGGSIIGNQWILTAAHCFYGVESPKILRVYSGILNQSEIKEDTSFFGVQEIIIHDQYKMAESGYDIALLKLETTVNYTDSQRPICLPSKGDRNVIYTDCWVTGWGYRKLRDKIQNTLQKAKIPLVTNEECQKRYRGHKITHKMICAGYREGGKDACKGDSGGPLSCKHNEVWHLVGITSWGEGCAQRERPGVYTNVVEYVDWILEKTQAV

Row | IC50 [µM] | SMILES
1 | 0.13 | COC(=O)Nc1ccc(-c2[nH]c(CNC(=O)/C=C/c3cc(Cl)ccc3-n3cnnn3)nc2Cl)cc1
2 | 0.04 | COC(=O)Nc1ccc(-c2[nH]c([C@H](C)NC(=O)/C=C/c3cc(Cl)ccc3-n3cnnn3)nc2Cl)cc1

Source: ChEMBL document CHEMBL5726331, “Pyridinone and pyrimidinone derivatives as factor Xia” (2017)
